Test results from patent publication US20250098679A1, “HERBICIDAL PYRIDONE DERIVATIVES” (SYNGENTA CROP PROTECTION AG, priority 2021, published 2025).

Columns and labels:
Assay type in all cases: in vivo
Details in all cases: evaluated after 13 days
[1] = test system: Setaria faberi (SETFA); experiment: Post-emergence Test, Setaria faberi (SETFA); design: key to percentage damage caused to the plant, SETFA (five-point scale): 5=81-100%, 4=61-80%, 3=41-60%, 2=21-40%, 1=0-20% damage
How it was run: (§1)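 Sown pots in a glasshouse (24/16 °C day/night, 14 h light, 65% humidity) were sprayed with compound in acetone/water (50:50) with 0.5% Tween 20, at 1000 g/ha unless otherwise stated. Damage was assessed 13 days after spraying and scored 1–5 (5=81-100%, 1=0-20%).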

[2] = test system: Setaria faberi (SETFA); experiment: Pre-emergence Test, Setaria faberi (SETFA)
[3] = test system: Amaranthus palmeri (AMAPA); experiment: Post-emergence Test, Amaranthus palmeri (AMAPA); design: key: 5=81-100%, 4=61-80%, 3=41-60%, 2=21-40%, 1=0-20% damage
How it was run: as §1

[4] = test system: Echinochloa crus-galli (ECHCG); experiment: Pre-emergence Test, Echinochloa crus-galli (ECHCG)
[5] = test system: Amaranthus palmeri (AMAPA); experiment: Pre-emergence Test, Amaranthus palmeri (AMAPA)
[6] = test system: Ipomoea hederacea (IPOHE); experiment: Pre-emergence Test, Ipomoea hederacea (IPOHE)
[7] = test system: Zea mays (ZEAMX); experiment: Post-emergence Test, Zea mays (ZEAMX); design: key to percentage damage caused to the plant, ZEAMX (five-point scale): 5=81-100%, 4=61-80%, 3=41-60%, 2=21-40%, 1=0-20% damage
How it was run: as §1

[8] = test system: Amaranthus retoflexus (AMARE); experiment: Pre-emergence Test, Amaranthus retoflexus (AMARE)
[9] = test system: Echinochloa crus-galli (ECHCG); experiment: Post-emergence Test, Echinochloa crus-galli (ECHCG); design: key to percentage damage caused to the plant, ECHCG (five-point scale): 5=81-100%, 4=61-80%, 3=41-60%, 2=21-40%, 1=0-20% damage
How it was run: as §1

[10] = test system: Amaranthus retoflexus (AMARE); experiment: Post-emergence Test, Amaranthus retoflexus (AMARE); design: key to percentage damage caused to the plant, AMARE (five-point scale): 5=81-100%, 4=61-80%, 3=41-60%, 2=21-40%, 1=0-20% damage
How it was run: as §1

[11] = test system: Ipomoea hederacea (IPOHE); experiment: Post-emergence Test, Ipomoea hederacea (IPOHE); design: key to percentage damage caused to the plant, IPOHE (five-point scale): 5=81-100%, 4=61-80%, 3=41-60%, 2=21-40%, 1=0-20% damage
How it was run: as §1

[12] = test system: Zea mays (ZEAMX); experiment: Pre-emergence Test, Zea mays (ZEAMX)

SMILES	percentage damage caused to the plant, SETFA (five-point scale) ([1]; 1000 g/ha)	Pre-emergence Test SETFA, percentage damage caused to the plant (five-point scale) ([2]; 1000 g/ha)	percentage damage caused to the plant, AMAPA (five-point scale) ([3]; 1000 g/ha)	Pre-emergence Test ECHCG, percentage damage caused to the plant (five-point scale) ([4]; 1000 g/ha)	Pre-emergence Test AMAPA, percentage damage caused to the plant (five-point scale) ([5]; 1000 g/ha)	Pre-emergence Test IPOHE, percentage damage caused to the plant (five-point scale) ([6]; 1000 g/ha)	percentage damage caused to the plant, ZEAMX (five-point scale) ([7]; 1000 g/ha)	Pre-emergence Test AMARE, percentage damage caused to the plant (five-point scale) ([8]; 1000 g/ha)	percentage damage caused to the plant, ECHCG (five-point scale) ([9]; 1000 g/ha)	percentage damage caused to the plant, AMARE (five-point scale) ([10]; 1000 g/ha)	percentage damage caused to the plant, IPOHE (five-point scale) ([11]; 1000 g/ha)	Pre-emergence Test ZEAMX, percentage damage caused to the plant (five-point scale) ([12]; 1000 g/ha)	percentage damage caused to the plant, SETFA (five-point scale) ([1]; 250 g/Ha)	percentage damage caused to the plant, AMAPA (five-point scale) ([3]; 250 g/Ha)	percentage damage caused to the plant, ZEAMX (five-point scale) ([7]; 250 g/Ha)	percentage damage caused to the plant, ECHCG (five-point scale) ([9]; 250 g/Ha)	percentage damage caused to the plant, AMARE (five-point scale) ([10]; 250 g/Ha)	percentage damage caused to the plant, IPOHE (five-point scale) ([11]; 250 g/Ha)	other results
CCn1c(Cn2nc(C(F)(F)F)cc2O)cc(=O)c(C(=O)O)c1-c1ccc(Cl)c(Cl)c1 [Compound 147, 2-(3,4-dichlorophenyl)-1-ethyl-6-[[5-hydroxy-3-(trifluoromethyl)pyrazol-1-yl]methyl]-4-oxo-pyridine-3-carboxylic acid]	0	1 (1=0-20%)	0	0	1 (1=0-20%)	0	0	0	0	1 (1=0-20%)	1 (1=0-20%)	0							
CCn1c(Cn2cc(C(F)F)cn2)cc(=O)c(C(=O)O)c1-c1ccc(Cl)c(Cl)c1 [Compound 109, 2-(3,4-dichlorophenyl)-6-[[4-(difluoromethyl)pyrazol-1-yl]methyl]-1-ethyl-4-oxo-pyridine-3-carboxylic acid]	4 (4=61-80%)	5 (5=81-100%)	3 (3=41-60%)	5 (5=81-100%)	0	4 (4=61-80%)	3 (3=41-60%)	0	4 (4=61-80%)	1 (1=0-20%)	3 (3=41-60%)	0	1 (1=0-20%)	0	1 (1=0-20%)	3 (3=41-60%)	0	2 (2=21-40%)	Pre-emergence Test SETFA, percentage damage caused to the plant (five-point scale) ([2]; 250 g/Ha (*)): 2 (2=21-40%); Pre-emergence Test ECHCG, percentage damage caused to the plant (five-point scale) ([4]; 250 g/Ha (*)): 3 (3=41-60%); Pre-emergence Test AMAPA, percentage damage caused to the plant (five-point scale) ([5]; 250 g/Ha (*)): 0; Pre-emergence Test IPOHE, percentage damage caused to the plant (five-point scale) ([6]; 250 g/Ha (*)): 1 (1=0-20%); Pre-emergence Test AMARE, percentage damage caused to the plant (five-point scale) ([8]; 250 g/Ha (*)): 0; Pre-emergence Test ZEAMX, percentage damage caused to the plant (five-point scale) ([12]; 250 g/Ha (*)): 0
Cn1c(Cn2ccc(C(F)(F)F)n2)cc(=O)c(C(=O)O)c1-c1ccc(Cl)c(Cl)c1 [Compound 33, 2-(3,4-dichlorophenyl)-1-methyl-4-oxo-6-[[3-(trifluoromethyl)pyrazol-1-yl]methyl]pyridine-3-carboxylic acid]	4 (4=61-80%)	5 (5=81-100%)	2 (2=21-40%)	5 (5=81-100%)	3 (3=41-60%)	0	2 (2=21-40%)	0	4 (4=61-80%)	3 (3=41-60%)	3 (3=41-60%)	0	3 (3=41-60%)	1 (1=0-20%)	1 (1=0-20%)	3 (3=41-60%)	1 (1=0-20%)	4 (4=61-80%)	
CCn1c(Cn2nc(Cl)cc2C)cc(=O)c(C(=O)O)c1-c1ccc(Cl)c(Cl)c1 [Compound 15, 6-[(3-chloro-5-methyl-pyrazol-1-yl)methyl]-2-(3,4-dichlorophenyl)-1-ethyl-4-oxo-pyridine-3-carboxylic acid]	4 (4=61-80%)	4 (4=61-80%)	5 (5=81-100%)	4 (4=61-80%)	5 (5=81-100%)	3 (3=41-60%)	3 (3=41-60%)	2 (2=21-40%)	4 (4=61-80%)	3 (3=41-60%)	5 (5=81-100%)	2 (2=21-40%)	3 (3=41-60%)	5 (5=81-100%)	2 (2=21-40%)	4 (4=61-80%)	5 (5=81-100%)	3 (3=41-60%)	
CCn1c(Cn2nc(C(=O)OC)cc2C(=O)OC)cc(=O)c(C(=O)O)c1-c1ccc(Cl)c(Cl)c1 [Compound 115, 6-[[3,5-bis(methoxycarbonyl)pyrazol-1-yl]methyl]-2-(3,4-dichlorophenyl)-1-ethyl-4-oxo-pyridine-3-carboxylic acid]	0	1 (1=0-20%)	2 (2=21-40%)	0	1 (1=0-20%)	0	1 (1=0-20%)	0	0	0	0	0	0	1 (1=0-20%)	0	0	1 (1=0-20%)	0	
